Test results reported in the NIST ThermoML archive (doi:10.1021/acs.jced.8b00132).
“And” between values parts separate entries of the source, which are not always exact repeats. Equal entries are not always repeated.

Conditions: Gas

O=C(C(F)(F)C(F)(F)F)C(F)(C(F)(F)F)C(F)(F)F [dodecafluoro-2-methylpentan-3-one]
Conditions	thermal conductivity
454.15 K, 782 kPa, transient hot wire	0.02353 W/m/K
454.15 K, 47000 kPa, transient hot wire	0.06263 W/m/K
454.17 K, 779 kPa, transient hot wire	0.02342 W/m/K
454.18 K, 46933 kPa, transient hot wire	0.06269 W/m/K and 0.06261 W/m/K
454.2 K, 169 kPa, hot wire	0.0226 W/m/K
454.2 K, 1365 kPa, transient hot wire	0.0246 W/m/K
454.21 K, 169 kPa, hot wire	0.02248 W/m/K
454.21 K, 1366 kPa, transient hot wire	0.02448 W/m/K
454.22 K, 47 kPa, hot wire	0.0225 W/m/K and 0.02246 W/m/K
454.23 K, 526 kPa, transient hot wire	0.02368 W/m/K
454.26 K, 526 kPa, transient hot wire	0.02374 W/m/K
454.32 K, 351 kPa, transient hot wire	0.02402 W/m/K
454.32 K, 354 kPa, transient hot wire	0.02406 W/m/K
454.33 K, 781 kPa, transient hot wire	0.02352 W/m/K
454.36 K, 1365 kPa, transient hot wire	0.02461 W/m/K
454.38 K, 1365 kPa, transient hot wire	0.02468 W/m/K
454.41 K, 524 kPa, transient hot wire	0.02367 W/m/K
454.41 K, 526 kPa, transient hot wire	0.02369 W/m/K
454.49 K, 780 kPa, transient hot wire	0.02364 W/m/K
454.5 K, 345 kPa, transient hot wire	0.02401 W/m/K
454.5 K, 348 kPa, transient hot wire	0.02403 W/m/K
454.5 K, 779 kPa, transient hot wire	0.02369 W/m/K
454.54 K, 1365 kPa, transient hot wire	0.02476 W/m/K
454.58 K, 524 kPa, transient hot wire	0.02372 W/m/K
454.6 K, 523 kPa, transient hot wire	0.02364 W/m/K
454.67 K, 776 kPa, transient hot wire	0.0236 W/m/K
454.68 K, 341 kPa, transient hot wire	0.02404 W/m/K
454.68 K, 343 kPa, transient hot wire	0.02408 W/m/K
454.68 K, 778 kPa, transient hot wire	0.02361 W/m/K
454.78 K, 524 kPa, transient hot wire	0.02371 W/m/K
454.79 K, 524 kPa, transient hot wire	0.02372 W/m/K
454.86 K, 776 kPa, transient hot wire	0.02365 W/m/K
454.87 K, 339 kPa, transient hot wire	0.02408 W/m/K
454.87 K, 774 kPa, transient hot wire	0.02365 W/m/K
454.88 K, 340 kPa, transient hot wire	0.02406 W/m/K
454.98 K, 523 kPa, transient hot wire	0.02378 W/m/K and 0.02375 W/m/K
455.07 K, 337 kPa, transient hot wire	0.02422 W/m/K
455.08 K, 338 kPa, transient hot wire	0.02415 W/m/K
472.48 K, 3077 kPa, transient hot wire	0.03434 W/m/K
472.49 K, 3077 kPa, transient hot wire	0.03339 W/m/K
472.51 K, 2894 kPa, transient hot wire	0.03274 W/m/K
472.53 K, 2894 kPa, transient hot wire	0.034 W/m/K
472.53 K, 3077 kPa, transient hot wire	0.034 W/m/K
472.55 K, 3077 kPa, transient hot wire	0.03381 W/m/K
472.57 K, 2711 kPa, transient hot wire	0.03198 W/m/K
472.58 K, 2894 kPa, transient hot wire	0.03316 W/m/K
472.59 K, 2711 kPa, transient hot wire	0.03186 W/m/K
472.59 K, 2894 kPa, transient hot wire	0.03275 W/m/K
472.59 K, 3077 kPa, transient hot wire	0.03373 W/m/K
472.6 K, 3077 kPa, transient hot wire	0.03356 W/m/K
472.62 K, 3291 kPa, transient hot wire	0.03462 W/m/K
472.63 K, 2711 kPa, transient hot wire	0.03247 W/m/K
472.64 K, 2711 kPa, transient hot wire	0.03224 W/m/K
472.64 K, 2894 kPa, transient hot wire	0.03315 W/m/K and 0.03273 W/m/K
472.65 K, 3077 kPa, transient hot wire	0.03407 W/m/K and 0.03386 W/m/K
472.67 K, 2504 kPa, transient hot wire	0.03029 W/m/K
472.67 K, 3291 kPa, transient hot wire	0.03475 W/m/K and 0.03505 W/m/K
472.68 K, 2504 kPa, transient hot wire	0.02998 W/m/K
472.68 K, 2894 kPa, transient hot wire	0.03347 W/m/K
472.7 K, 2711 kPa, transient hot wire	0.0322 W/m/K
472.7 K, 2712 kPa, transient hot wire	0.03222 W/m/K
472.7 K, 3078 kPa, transient hot wire	0.03422 W/m/K and 0.0347 W/m/K
472.7 K, 4062 kPa, transient hot wire	0.03638 W/m/K
472.71 K, 2894 kPa, transient hot wire	0.03401 W/m/K
472.71 K, 4063 kPa, transient hot wire	0.03625 W/m/K
472.73 K, 3291 kPa, transient hot wire	0.03502 W/m/K and 0.03525 W/m/K
472.73 K, 3605 kPa, transient hot wire	0.036 W/m/K
472.74 K, 3604 kPa, transient hot wire	0.03572 W/m/K
472.75 K, 2505 kPa, transient hot wire	0.03037 W/m/K
472.75 K, 2894 kPa, transient hot wire	0.0336 W/m/K
472.75 K, 4063 kPa, transient hot wire	0.03659 W/m/K
472.76 K, 2711 kPa, transient hot wire	0.03263 W/m/K
472.77 K, 2712 kPa, transient hot wire	0.03232 W/m/K
472.77 K, 2894 kPa, transient hot wire	0.03342 W/m/K
472.77 K, 4063 kPa, transient hot wire	0.0364 W/m/K
472.78 K, 3291 kPa, transient hot wire	0.03545 W/m/K
472.78 K, 3605 kPa, transient hot wire	0.03545 W/m/K
472.8 K, 4819 kPa, transient hot wire	0.03773 W/m/K
472.81 K, 2264 kPa, transient hot wire	0.02846 W/m/K
472.81 K, 2265 kPa, transient hot wire	0.02848 W/m/K
472.81 K, 4062 kPa, transient hot wire	0.03638 W/m/K
472.81 K, 4820 kPa, transient hot wire	0.03801 W/m/K
472.82 K, 2505 kPa, transient hot wire	0.03067 W/m/K and 0.03052 W/m/K
472.83 K, 2712 kPa, transient hot wire	0.03316 W/m/K
472.83 K, 3291 kPa, transient hot wire	0.03561 W/m/K
472.83 K, 4063 kPa, transient hot wire	0.03659 W/m/K
472.84 K, 2711 kPa, transient hot wire	0.03262 W/m/K
472.85 K, 3605 kPa, transient hot wire	0.03577 W/m/K
472.86 K, 3292 kPa, transient hot wire	0.03541 W/m/K
472.86 K, 3605 kPa, transient hot wire	0.0358 W/m/K
472.87 K, 2265 kPa, transient hot wire	0.02848 W/m/K
472.87 K, 4820 kPa, transient hot wire	0.03777 W/m/K
472.88 K, 4820 kPa, transient hot wire	0.03795 W/m/K
472.91 K, 4063 kPa, transient hot wire	0.03666 W/m/K
472.92 K, 4063 kPa, transient hot wire	0.03656 W/m/K
472.93 K, 3605 kPa, transient hot wire	0.03577 W/m/K
472.94 K, 4821 kPa, transient hot wire	0.03795 W/m/K
472.95 K, 4821 kPa, transient hot wire	0.03782 W/m/K
472.96 K, 2265 kPa, transient hot wire	0.02876 W/m/K
472.96 K, 4064 kPa, transient hot wire	0.03659 W/m/K
472.97 K, 2265 kPa, transient hot wire	0.02862 W/m/K
472.98 K, 4064 kPa, transient hot wire	0.0367 W/m/K
472.99 K, 3605 kPa, transient hot wire	0.03603 W/m/K
472.99 K, 3606 kPa, transient hot wire	0.0358 W/m/K
472.99 K, 5939 kPa, transient hot wire	0.03924 W/m/K
473.01 K, 4823 kPa, transient hot wire	0.03784 W/m/K
473.03 K, 4823 kPa, transient hot wire	0.038 W/m/K
473.06 K, 1890 kPa, transient hot wire	0.02666 W/m/K
473.06 K, 2265 kPa, transient hot wire	0.02868 W/m/K
473.06 K, 5939 kPa, transient hot wire	0.03956 W/m/K
473.07 K, 605 kPa, hot wire	0.02596 W/m/K
473.08 K, 606 kPa, hot wire	0.02604 W/m/K
473.08 K, 1889 kPa, transient hot wire	0.02628 W/m/K
473.08 K, 2265 kPa, transient hot wire	0.02867 W/m/K
473.08 K, 5937 kPa, transient hot wire	0.03959 W/m/K
473.1 K, 4824 kPa, transient hot wire	0.03789 W/m/K and 0.03779 W/m/K
473.11 K, 430 kPa, hot wire	0.0254 W/m/K
473.13 K, 429 kPa, hot wire	0.02498 W/m/K
473.14 K, 204 kPa, hot wire	0.0245 W/m/K and 0.02427 W/m/K
473.14 K, 5937 kPa, transient hot wire	0.03959 W/m/K and 0.03958 W/m/K
473.15 K, 1888 kPa, transient hot wire	0.0266 W/m/K
473.16 K, 2265 kPa, transient hot wire	0.02905 W/m/K
473.17 K, 607 kPa, hot wire	0.02579 W/m/K
473.17 K, 2265 kPa, transient hot wire	0.0291 W/m/K
473.18 K, 607 kPa, hot wire	0.02602 W/m/K
473.19 K, 7819 kPa, transient hot wire	0.04147 W/m/K
473.19 K, 49267 kPa, transient hot wire	0.06278 W/m/K
473.21 K, 47 kPa, hot wire	0.02404 W/m/K
473.21 K, 427 kPa, hot wire	0.02512 W/m/K
473.21 K, 49264 kPa, transient hot wire	0.06294 W/m/K
473.22 K, 426 kPa, hot wire	0.02501 W/m/K
473.22 K, 5937 kPa, transient hot wire	0.03959 W/m/K
473.23 K, 47 kPa, hot wire	0.02385 W/m/K
473.24 K, 203 kPa, hot wire	0.02435 W/m/K and 0.02438 W/m/K
473.24 K, 5937 kPa, transient hot wire	0.03993 W/m/K
473.26 K, 49261 kPa, transient hot wire	0.06261 W/m/K
473.26 K, 49266 kPa, transient hot wire	0.06275 W/m/K
473.27 K, 607 kPa, hot wire	0.02598 W/m/K and 0.02584 W/m/K
473.27 K, 1888 kPa, transient hot wire	0.02674 W/m/K
473.27 K, 49222 kPa, transient hot wire	0.06278 W/m/K
473.27 K, 49223 kPa, transient hot wire	0.06286 W/m/K
473.28 K, 47 kPa, hot wire	0.02405 W/m/K
473.28 K, 1888 kPa, transient hot wire	0.02686 W/m/K
473.28 K, 7819 kPa, transient hot wire	0.0414 W/m/K
473.29 K, 423 kPa, hot wire	0.02534 W/m/K
473.29 K, 5935 kPa, transient hot wire	0.03933 W/m/K
473.29 K, 7822 kPa, transient hot wire	0.04164 W/m/K
473.3 K, 47 kPa, hot wire	0.02401 W/m/K
473.3 K, 425 kPa, hot wire	0.02526 W/m/K
473.31 K, 5936 kPa, transient hot wire	0.03955 W/m/K
473.33 K, 202 kPa, hot wire	0.02458 W/m/K
473.33 K, 7818 kPa, transient hot wire	0.04161 W/m/K
473.33 K, 33947 kPa, transient hot wire	0.05683 W/m/K
473.33 K, 49216 kPa, transient hot wire	0.06307 W/m/K
473.34 K, 203 kPa, hot wire	0.02431 W/m/K
473.34 K, 33948 kPa, transient hot wire	0.05717 W/m/K
473.35 K, 47 kPa, hot wire	0.02449 W/m/K
473.35 K, 49221 kPa, transient hot wire	0.06272 W/m/K
473.36 K, 47 kPa, hot wire	0.02437 W/m/K
473.36 K, 606 kPa, hot wire	0.02606 W/m/K
473.36 K, 7821 kPa, transient hot wire	0.04152 W/m/K
473.37 K, 607 kPa, hot wire	0.0258 W/m/K
473.38 K, 420 kPa, hot wire	0.02536 W/m/K
473.38 K, 1887 kPa, transient hot wire	0.02681 W/m/K
473.38 K, 1913 kPa, transient hot wire	0.02688 W/m/K
473.38 K, 49255 kPa, transient hot wire	0.06283 W/m/K
473.39 K, 419 kPa, hot wire	0.0252 W/m/K
473.39 K, 1474 kPa, transient hot wire	0.02551 W/m/K
